Assay results as given in patent US10520492B2, “Method of screening for candidate compounds for regulating melanogenesis or pigmentation” (CHANEL PARFUMS BEAUTE, priority 2013, dated 2019).
Entries after “also recorded” stand apart in the source; their conditions may differ.

Assays:
[1] = system: Hsp60; experiment: Immunostaining of Hsp60 upon OAG induction; format: cell-based, human; conditions: induction of melanogenesis by OAG, FIG. 4
Description: (§1) Cells were cultured and treated on glass coverslips placed in 12-well culture dish. At the end of the treatment as described above, coverslips were washed with cold phosphate-buffered saline (PBS) and the cells were fixed with pre-chilled methanol:acetone (1:1 v/v) mixture for 5-10 min. Fixed cells were washed with PBS, permeabilized with 0.2% TRITON™ X-100 (4-(1,1,3,3-Tetramethylbutyl)phenyl-polyethylene glycol) in PBS for 10 min, and blocked with 2% bovine serum albumin (BSA) in PBS for 20 min. Cells were stained with anti-mortalin, anti-HSP60, anti-tyrosinase and anti-melanosome antibodies. Immunostaining was visualized by secondary staining with Alexa-488 or Alexa-594 conjugated antibodies (Molecular probes). After three to four washings with 0.2% TRITON™ X-100 in PBS (PBST), cells were overlaid with Fluoromount (Difco). The cells were examined with Carl Zeiss microscope with epifluorescence optics.

[2] = system: primary melanocytes from a skin donor; experiment: Melanosome immunostaining in primary melanocytes from donor; format: cell-based, human; conditions: OAG-treated vs control primary melanocytes, FIG. 1A
Description: (§2) The human melanoma G361 were bought from Cell Resource Center for Biomedical Research, Tohoku University, Japan and were cultured in DMEM (Dulbecco's Modified Eagle's Medium, Invitrogen) supplemented with 10% fetal bovine serum in a humidified incubator (37° C. and 5% CO2). Human primary melanocytes from the light and dark skin donors were bought from ScienCell Research Laboratories and were cultured in the recommended melanocyte growth medium. Cells were transfected with the expression plasmids coding for either mortalin or HSP60 protein using Fugene (Roche) as per recommended protocol. Typically 3-5 μg of plasmid DNA was used for 6 cms culture dish at 70-80% confluency. Cells were incubated with the plasmids for 48 hrs after which cells were harvested and examined for the expression indicated genes by protocols as described below. For shRNA transfections, Oligofectamine™ Transfection Reagent (Life Technologies™) was used as per manufacturer's instructions. Transfected cells were incubated with medium supplemented with puromycin (1 ug/ml) for 24-48 hrs and were then processed for assays as described below.
(§3) Cells were cultured and treated on glass coverslips placed in 12-well culture dish. […]

[3] = system: tyrosinase; experiment: Western blotting of tyrosinase in G361 cells; format: cell-based, human
Description: (§4) Cells were grown and treated in 6-well plates. After transfections or drug treatments as described above, the cells were lysed with RIPA lysis buffer. Cell lysate (30 μg) was resolved on SDS-PAGE followed by transfer onto a nitrocellulose membrane (Millipore) using a semidry transfer blotter. Immunoassays were done with anti-mortalin, anti-HSP70 and anti-tyrosinase antibodies. The immunocomplexes formed were visualized with horseradish peroxidase-conjugated anti-rabbit/mouse immunoglobulin G. The bands were detected by LAS 3000 mini (FujiFilm).

[4] = system: human melanoma cells G361; experiment: Melanosome immunostaining in G361 cells; format: cell-based; conditions: OAG-treated vs control G361 cells, FIG. 1B
Description: as §2, §3

[5] = system: G361 cells; experiment: Melanin content in G361 cells; format: cell-based, human; conditions: for OAG-induced melanin content: OAG-treated G361 cells, recovery with test substance
Description: Cells were treated with Di-acyl glycerol (OAG, 20 μg/ml) for 24 h followed by recovery either in the normal medium as described below or Vitamin C (0.1-0.3 mM) for 24 to 48 hrs.
(§5) G361 cells were cultured overnight and allowed to adhere to the surface well after which they were treated with TXC supplemented medium or OAG as described below followed by recovery in the TXC medium at doses indicated in the data figs.
Cells were plated in 96 well plates and allowed to attach well to the surface of the plate for 24 hours followed by transfections and treatments as described above and indicated in the figure legends. Cells were washed with PBS. Potassium hydroxide (KOH-0.85 N, 100 μl) was added to each. The plates were shaken gently in dark for overnight. Absorbance of the pigment was measured at 405 nm. Melanin content was calculated by using standard purified melanin (Sigma).

[6] = system: mortalin; experiment: Mortalin expression (immunoblotting) in G361 cells; format: cell-based, human
Description: as §5, §4

[7] = system: mortalin; experiment: Immunostaining of mortalin upon OAG induction; format: cell-based, human; conditions: induction of melanogenesis by OAG, FIG. 5
Description: as §1

[8] = system: tyrosinase; experiment: Tyrosinase ELISA (tyrosinase activity assay) in G361 cells; format: cell-based, human
Description: Cells (Approximately 10000 cells/well) were plated in 96 well Nunc-Immuno maxisorp plates. At about 70% confluency, cells were transfected with shRNA plasmids (100 ng/well) as described above. After 24 hrs post-transfection, the cells were selected in puromycin-supplemented medium and were then processed for tyrosinase ELISA as described below. Cells were washed with PBS twice and were lysed in RIPA lysis buffer (Santa Cruz Biotechnology). Protein concentrations of the lysates were determined (Pierce BCA Protein Assay kit, Thermo Scientific) and the samples were diluted to 1 ug/ul concentration in coating buffer (0.1 M Sodium bicarbonate, 0.02% Sodium Azide pH-9.6). 5 μg of the protein sample was added to each well in a final volume of 100 μl of the coating buffer. The plates were gently shaken for 10 min and were then securely sealed and left for 2 hrs at room temperature. The solution was discarded and the plates were washed with washing buffer (PBS-0.5% TWEEN® 20, which is polysorbate 20) for 5 min. Blocking buffer (200 ul) was added to each well and the plates were incubated for 2 hours at room temperature followed by washings with the Washing buffer twice (3 min each). Anti-tyrosinase antibody (50 μl, 5 μg/ml in the blocking buffer) was added to each well and the plated were sealed and kept at room temperature for 1-2 hrs followed by washings with the washing buffer (3×10 min). The plates were incubated with the secondary antibody (Alkaline phosphatase, AP-Goat anti Rabbit IgG) for 1 hr and were then washed with the washing buffer for 3-5 times. The 100 μl of the substrate for AP (Nitrophenyl Phosphate, Disodium Salt, PNPP) was added to each well. Plates were again sealed and left for 30 min followed by measuring the absorbance at 405 nm that represented the quantitative estimation of tyrosinase expression.

[9] = system: Hsp60; experiment: Hsp60 expression in G361 cells; format: cell-based, human; conditions: FIG. 13B, Hydrochloride Salt

SMILES	Hsp60 level (immunostaining) [1]	melanosome production [2]	tyrosinase expression ([3]; OAG-treated G361 cells, FIG. 3A)	melanosome production [4]	melanin content ([5]; G361 cells treated with OAG, FIG. 2)	mortalin expression ([6]; G361 cells treated with OAG, FIG. 13C)	mortalin level (immunostaining) [7]	tyrosinase activity ([8]; OAG-treated G361 cells, FIG. 3B)	endogenous expression of Hsp60 [9]	endogenous expression of tyrosinase ([3]; G361 cells, FIG. 13A, Hydrochloride Salt)	OAG-induced melanin content [5]	endogenous melanin ([5]; OAG-untreated G361 cells)	OAG-induced expression of Mortalin ([6]; G361 cells treated with OAG, then recovery in presence of test substance, Hydrochloride Salt)	endogenous expression of Mortalin ([6]; G361 cells, FIG. 13, Hydrochloride Salt)	OAG-induced tyrosinase activity ([8]; OAG-treated G361 cells, TXC at various concentrations, FIG. 12)	OAG-induced tyrosinase ([8]; OAG-treated G361 cells then Vitamin C, FIG. 3)
CCCCCCCC/C=C\CCCCCCCC(=O)OC[C@H](CO)OC(C)=O [OAG, 1-oleoyl-2-acetyl-sn-glycero]	upregulation	induced	increase	induced	Increase	Increase	upregulation	increase	–	–	–	–	–	–	–	–
CCCCCCCCCCCCCCCCOC(=O)C1CCC(CN)CC1.Cl (centres unmarked) [TXC, Cetyl Tranexamate Hydrochloride Salt]	–	–	–	–	–	–	–	–	Reduction; also recorded: decreases	Reduction; also recorded: decreases	reduction	reduction	reduction; also recorded: decrease	reduction; also recorded: decreases	reduction	–
O=C1O[C@H]([C@@H](O)CO)C(O)=C1O [Vitamin C]	–	–	–	–	–	–	–	–	–	–	reduction	–	–	–	–	decrease
